The subject of the test is consortium of 6 Lactobacilli spp cultures. The experiment in a line: Corn mash fermentation without yeast, inoculated with Lactobacillus consortium, well-mixed or poorly-mixed fermentors. Format: cell-based, Lactobacillus sp. The source says: The purpose of this experiment is to determine the efficacy of virginiamycin in three forms (DMSO-solubilized virginiamycin, Belgium powdered virginiamycin, and Brazilian powdered virginiamycin) in real corn mash fermentations against a consortium of Lactobacillus sp bacteria. No yeasts will be added. The efficacy of these forms of virginiamycin will be further tested in fermentors that will be properly (continuously) mixed and in fermentors that have improper mixing—simulating more closely the fermentor mixing conditions seen in field ethanol plants.
The first step in testing was the preparation of corn mash (i.e., Gelatinization, Liquefaction, and Saccharification). […]
The mash temperature was then decreased to 60° C. at which point 2 L water and 200 ml G-Zyme™ 480 Ethanol glucoamylase (available from Genencor, Rochester, N.Y.) were added. […] No bacterial contamination was detected in any test incubated mashes.
For each 7.6 L sterile container of mash, a 60 g aliquot was removed and divided into two 30 g sub-samples within 50 ml centrifuge tubes. […] The specific gravity of each subsample was then determined using a digital density meter (DMA-45; Anton Paar KG, Graz, Austria) which was temperature regulated to 4° C. If the readings on the density meter were off-scale, then a precise dilution of the subsamples were done and then re-read in the density meter. […]

The text below walks through data of patent US20080003215A1, “Use of pre-dissolved pristinamycin-type and polyether ionophore type antimicrobial agents in the production of ethanol” (priority 2006, published 2008).

On to virginiamycin, for which, where the note is “pre-solubilized agent, within 6 hours”, the Lactobacilli killed result is “at least 90%”. Besides, for the setting “well mixed fermentors (150 RPM), 1 ppm virginiamycin, inoculum 5E5 CFU/ml, up to 48 h”, the Lactobacillus count is given as ≤ 1 E6 CFU/ml.
